Source: PubChem BioAssay AID1645862 (Buhrlage Lab, Dana-Farber Cancer Institute and Novartis …, 2021)
Calls of active or inactive are those of the source. How the calls were made is not given here.

molecular target: Ubiquitin carboxyl-terminal hydrolase 8 (Homo sapiens) (UniProt P40818); assay: Ubiquitin-specific protease 8 inhibitors, concentration-effect, biochemical, validation of initial actives (AID 1645862); conditions: recombinant USP8 deubiquitinase activity assay;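 further: potency reflects inhibition of USP8 cleavage of a ubiquitin rhodamine substrate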
Sequence (P40818 whole entry, looked up): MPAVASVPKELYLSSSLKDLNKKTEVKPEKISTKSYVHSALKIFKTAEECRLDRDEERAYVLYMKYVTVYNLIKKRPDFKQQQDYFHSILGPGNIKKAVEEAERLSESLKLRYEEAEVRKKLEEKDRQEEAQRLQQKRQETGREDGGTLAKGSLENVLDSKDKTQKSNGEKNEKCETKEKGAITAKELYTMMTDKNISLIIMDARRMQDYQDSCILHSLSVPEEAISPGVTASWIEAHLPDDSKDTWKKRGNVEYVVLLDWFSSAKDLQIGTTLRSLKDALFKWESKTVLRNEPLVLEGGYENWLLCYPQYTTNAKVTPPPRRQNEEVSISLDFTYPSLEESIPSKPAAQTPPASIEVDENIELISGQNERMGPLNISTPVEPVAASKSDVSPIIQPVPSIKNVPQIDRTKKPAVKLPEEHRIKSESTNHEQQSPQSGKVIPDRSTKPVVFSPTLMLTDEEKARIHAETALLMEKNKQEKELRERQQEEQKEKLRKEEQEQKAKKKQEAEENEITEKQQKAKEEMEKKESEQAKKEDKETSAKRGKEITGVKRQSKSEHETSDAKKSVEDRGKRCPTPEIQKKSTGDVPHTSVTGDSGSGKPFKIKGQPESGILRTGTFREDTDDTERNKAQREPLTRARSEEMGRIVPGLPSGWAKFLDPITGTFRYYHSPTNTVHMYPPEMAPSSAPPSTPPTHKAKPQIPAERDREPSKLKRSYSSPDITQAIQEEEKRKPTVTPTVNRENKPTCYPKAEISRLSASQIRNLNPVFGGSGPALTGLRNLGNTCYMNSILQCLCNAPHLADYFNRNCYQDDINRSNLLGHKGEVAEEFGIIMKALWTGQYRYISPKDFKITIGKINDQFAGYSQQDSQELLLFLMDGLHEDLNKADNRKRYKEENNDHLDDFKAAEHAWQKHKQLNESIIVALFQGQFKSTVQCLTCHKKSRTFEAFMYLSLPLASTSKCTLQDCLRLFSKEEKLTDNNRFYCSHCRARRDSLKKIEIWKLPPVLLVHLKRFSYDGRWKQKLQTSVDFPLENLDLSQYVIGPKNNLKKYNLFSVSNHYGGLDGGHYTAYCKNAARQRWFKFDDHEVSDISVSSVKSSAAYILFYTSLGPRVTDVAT

SMILES | IC50
c1cncc(-c2cnc3sc(NC4CCCCC4)nn23)c1 | > 40 µM (inactive)
COc1ccc(C(=O)Nc2ccccc2C(=O)NC(Cc2ccc(O)cc2)C(=O)NNC(=O)Cc2ccc(OC)c(OC)c2)cc1 (stereo not given) | > 40 µM (inactive)
O=C(Nc1cc(S(=O)(=O)Nc2ccc(Cl)cc2)ccc1O)c1cc2c(s1)CCC2 | 10.7 µM
Cc1ccc2[nH]c(=O)c(CN(CC3COCCO3)S(=O)(=O)c3ccc(F)cc3)cc2c1 (stereo not given) | > 40 µM (inactive)
O=C(NCc1ccc2c(c1)OCO2)c1cc2c(s1)CCC2 | 16.1 µM
Cc1cc(Cl)ccc1NC(=O)c1cc(-c2ccncc2)n[nH]1 | > 40 µM (inactive)
CC(=O)O[C@@H](C/C=C(\C)C(=O)O)[C@@H](C)[C@H]1C[C@H](OC(C)=O)[C@@]2(C)C3=CC[C@H]4C(C)(C)[C@H](O)CC[C@]4(C)C3=CC[C@]12C | > 40 µM (inactive)
COc1ccc(-c2noc(C3(c4ccc(F)cc4)CCOCC3)n2)cc1 | > 40 µM (inactive)
COc1cc(Cl)c(NC(=O)C2Cc3ccccc3N2C(=O)c2ccccc2)c(OC)c1 (stereo not given) | > 40 µM (inactive)
N#C/C(=C\c1ccccc1F)c1nnc(N)s1 | > 40 µM (inactive)
Cc1nc2c(nnn2C[C@H]2CCCN2C(=O)c2ccc(F)cc2)c(=O)[nH]1 | > 40 µM (inactive)
O=C(/C=C/C=C/C=C/C1CCCCC1)NC1=C[C@@](O)(/C=C/C=C/C=C/C(=O)NC2=C(O)CCC2=O)[C@@H]2O[C@@H]2C1=O | > 40 µM (inactive)
O=C1CC(c2ccccc2)n2ncnc2N1 (stereo not given) | > 40 µM (inactive)
CC(C)=CCC[C@H](C(=O)O)[C@@H]1CC[C@]2(C)C3=C(CC[C@@]12C)[C@@]1(C)CCC(=O)C(C)(C)C1CC3 (stereo not given in full) | > 40 µM (inactive)
O=C1Cc2ccccc2C(=O)N1Cc1cccc(Cl)c1 | 4.12 µM
Cc1cc(C(F)(F)F)n2nc(C3CCN(C(=O)c4cnn(C)c4C)C3)cc2n1 (stereo not given) | 23.8 µM
Cc1c(NC(=O)/C=C/c2cccc(Cl)c2Cl)cccc1-n1cnnn1 | > 40 µM (inactive)
COC(=O)c1cc2c(ccn2-c2ccc(F)cc2)n1CC(=O)NC1CCCCC1 | > 40 µM (inactive)
O=C(NCc1ccc2c(c1)OCO2)c1cc2c(s1)-c1ccccc1OC2 | > 40 µM (inactive)
CSc1nc(NCc2ccccc2)c2sc3nc(N4CCOCC4)c4c(c3c2n1)CC(C)(C)OC4 | > 40 µM (inactive)
Cc1sc2ccn(C)c(=O)c2c1C(=O)NC1CCCC1 | 2.18 µM
O=C(/C=C/c1cccc([N+](=O)[O-])c1)N1CCc2ccccc21 | > 40 µM (inactive)
O=C(NCCN1CCOCC1)c1cn2cc(Cl)ccc2n1 | > 40 µM (inactive)
CC(=O)Nc1ccc(C(=O)/C=C2\NCCc3cc4c(cc32)OCCCO4)cc1 | > 40 µM (inactive)

SMILES | IC50
Cc1ccc(-c2nc(NC(=O)COc3ccc(Cl)cc3)no2)cc1 | 9.1 µM
Cc1occ2c1C(=O)c1c(O)ccc(O)c1C2 | 0.667 µM
O=C(COc1ccc(N2CC(C(=O)NCc3ccccc3)CC2=O)cc1)Nc1ccc(F)cc1 (stereo not given) | > 40 µM (inactive)
N=C1/C(=C/c2cn(Cc3ccccc3F)c3ccccc23)C(=O)N=C2SC(C(F)(F)F)=NN12 | > 40 µM (inactive)
Cc1noc(/C=C/Nc2cc(Cl)cc(Cl)c2)c1[N+](=O)[O-] | > 40 µM (inactive)
CCOc1ccc(-c2noc(-c3nn(-c4cccc(OC)c4)ccc3=O)n2)cc1 | 34.1 µM
O=C(Nc1ccc(-c2nc3ccccc3o2)cc1)c1ccc(S(=O)(=O)N2CCc3ccccc3C2)cc1 | > 40 µM (inactive)
Cc1ccc(-n2cc(C(=O)NCCCc3ccccc3)nn2)cc1 | > 40 µM (inactive)
COc1cc(C)cc2c1C(=O)c1c(cc(O)c(Cl)c1O)C2=O | 3.33 µM
CCOc1ncccc1C(=O)Nc1ccnn1Cc1ccccc1 | > 40 µM (inactive)
NS(=O)(=O)c1ccc(CNC(=O)c2ccc(Cl)c(S(=O)(=O)Nc3cc(Cl)ccc3Cl)c2)cc1 | > 40 µM (inactive)
COC(=O)c1ccc2c(=O)n(CCCCCC(=O)NCCC3=CCCCC3)c(=O)[nH]c2c1 | > 40 µM (inactive)
Cc1nn(-c2nc3ccccc3o2)c2c1C(c1cccc([N+](=O)[O-])c1)CC(=O)N2 (stereo not given) | > 40 µM (inactive)
Cc1nc(C(=O)NC2(O)C(=O)c3ccccc3C2=O)cs1 | 4.23 µM
O=C(COc1ccccc1-c1nnc(-c2ccccc2)o1)NCc1ccco1 | 37.9 µM
CS(=O)(=O)NC1CCCN(C(=O)Nc2cccc3ccccc23)C1 (stereo not given) | > 40 µM (inactive)
c1ccc(CNc2ccc(-c3ccccc3)nn2)cc1 | > 40 µM (inactive)
CCCCCCC1CCC(O)CC(O)CC(O)CC(O)CC(O)CC(O)/C(C)=C/C=C\C=C/C=C/C=C/[C@H](O)[C@@H](C)OC1=O (stereo not given in full) | > 40 µM (inactive)
Cc1ccc(-c2cnc(C3CC3)o2)cc1S(=O)(=O)Nc1ccc(F)c(Cl)c1 | > 40 µM (inactive)
COc1cccc(CNc2ccc(-c3nc(-c4ccccc4)no3)nn2)c1 | > 40 µM (inactive)
COC(=O)c1ccccc1NC(=O)C1CCCN(c2nnc(-n3cccc3)s2)C1 (stereo not given) | > 40 µM (inactive)
Cc1nc2cc(-c3noc(-c4cccc5[nH]ccc45)n3)ccc2o1 | > 40 µM (inactive)
CCOC(=O)C1CCN(C(=O)c2ccc3c(c2)NC(=O)C2CCCN32)CC1 (stereo not given) | 2.02 µM

Further lines, results first:

IC50 | SMILES
> 40 µM (inactive) | CCCc1ccc(C(=O)[C@@H]2[C@@H](C(=O)c3cccs3)N3c4ccc(C)cc4C(C)=C[C@@H]3[C@@]23C(=O)Nc2ccccc23)cc1
> 40 µM (inactive) | Cc1noc(C)c1COc1cccc(C(=O)Nc2cc(Cl)ccc2-n2cncn2)c1
> 40 µM (inactive) | O=C(CC1C(=O)Nc2nc3ccccc3n21)Nc1cccc2ccccc12 (stereo not given)
> 40 µM (inactive) | N#Cc1cccc(NC(=O)Cn2cccc2-c2nc(-c3ccccc3)no2)c1
> 40 µM (inactive) | Cc1c(C(=O)OCC(=O)Nc2ccc3c(c2)OCO3)oc2ccc(Br)cc12
21.3 µM | Cc1ccc(NC(=O)Cc2nnc3cc(-c4nc(C)no4)ccn23)cc1
> 40 µM (inactive) | COCCCn1c(C(=O)NCc2ccccc2)cc2c(=O)n3ccccc3nc21
> 40 µM (inactive) | COc1ccc(C(=O)CSc2nnc(-c3cc4ccccc4o3)n2C)cc1
> 40 µM (inactive) | Cc1cccc(NC(=O)CNC(=O)c2ccc(-c3noc(C4CCCC4)n3)cc2)c1C
> 40 µM (inactive) | Cc1cccc(-c2nnn3c2nc(NCC2CCCO2)c2ccccc23)c1 (stereo not given)
> 40 µM (inactive) | Cc1ccc(-n2c(=O)[nH]c3c(C(N)=O)nc(-c4ccc(OCc5ccccc5)cc4)nc32)cc1
> 40 µM (inactive) | Cc1cc(C)c(NC(=O)Cn2c(=O)n(CCC(=O)NCc3ccc4c(c3)OCO4)c(=O)c3sccc32)c(C)c1
> 40 µM (inactive) | CCOc1ccc(C(=O)CCC(=O)Nc2cccc(S(=O)(=O)Nc3cccc(Cl)c3)c2)cc1
> 40 µM (inactive) | Cc1ccc(NCc2cc3c(-c4cccc(F)c4)nn(-c4ccccc4)c3[nH]c2=O)cc1C
> 40 µM (inactive) | O=C(CCn1c(=O)c2sccc2n(Cc2ccc([N+](=O)[O-])cc2)c1=O)NCc1ccccc1
> 40 µM (inactive) | O=C(Cn1cnc(-c2noc(-c3cccc(F)c3)n2)c1)Nc1ccccc1
> 40 µM (inactive) | COc1cc(OC)c(NC(=O)Cn2c(=O)n(Cc3ccccc3Cl)c(=O)c3cc(OC)c(OC)cc32)cc1Cl
> 40 µM (inactive) | O=C(Cn1cc(C(=O)c2ccccc2)c(=O)c2cc(F)ccc21)Nc1ccc2c(c1)OCO2
> 40 µM (inactive) | O=C(Cn1nnc2ccccc21)Nc1nc(-c2ccc3c(c2)CCN3C(=O)c2ccccc2F)cs1
> 40 µM (inactive) | CC(=O)c1ccc(NC(=O)CSc2nc(-c3ccccc3)nc3c2COC(C)(C)C3)cc1
> 40 µM (inactive) | COc1ccc(-n2c(=O)c3ccc(C(=O)NCCc4ccccc4)cc3n(CC(=O)NCc3ccco3)c2=O)cc1
36.8 µM | Cc1ccccc1NC(=O)Cn1c(=O)n(-c2ccc(CC(=O)NCCc3ccccc3)cc2)c(=O)c2sccc21

IC50 | SMILES
> 40 µM (inactive) | O=C(COc1ccc(Cl)cc1Cl)Nc1ccc2[nH]c(=O)[nH]c2c1
> 40 µM (inactive) | CSc1cccc(NC(=O)COc2cccc3ccccc23)c1
39.2 µM | Cc1nc(-c2noc(-c3cccc(F)c3)n2)cn1CC(=O)Nc1ccccc1
> 40 µM (inactive) | O=C(CCCc1nnc2c(=O)n(-c3cccc(F)c3)ccn12)Nc1ccccc1
> 40 µM (inactive) | Cc1ccc2nc(CNc3ccc(F)cc3C)cc(=O)n2c1
> 40 µM (inactive) | Cc1ccc(Nc2nc(O)c(CC(=O)Nc3cccc(Cl)c3C)s2)cc1C
> 40 µM (inactive) | Cc1ccc(Cl)cc1NC(=O)c1cc(-c2ccccn2)n[nH]1
> 40 µM (inactive) | Cn1cc(C(=O)Nc2ccccc2)c2[nH]c(=O)n(Cc3ccccc3)c(=O)c21
> 40 µM (inactive) | Cc1ccc(C(=O)c2cn(CC(=O)Nc3ccc(F)c(F)c3)c3ccc(F)cc3c2=O)cc1
> 40 µM (inactive) | COc1cccc(C(=O)Cn2c(=O)n(CCCC(=O)NCc3ccco3)c(=O)c3ccc(Cl)cc32)c1
> 40 µM (inactive) | COc1cccc(C2c3[nH]c4ccccc4c3C[C@@H]3C(=O)N(C4CC4)CC(=O)N23)c1 (stereo not given in full)
> 40 µM (inactive) | Cc1ccc(Nc2nc(NCC(=O)Nc3cc(C)ccc3C)nc(Nc3ccc(C)cc3)n2)cc1
> 40 µM (inactive) | Cc1cc(C)c(NC(=O)Cn2c(SCc3cccc(F)c3)nc3cccnc32)c(C)c1
> 40 µM (inactive) | Cc1cccc(NC(=O)Cn2c(=O)n(-c3cc(C)cc(C)c3)c(=O)c3sccc32)c1
> 40 µM (inactive) | Cc1ccc(-n2nc(C)c3c2NC(=O)CC3C(=O)c2cc3ccccc3o2)cc1 (stereo not given)
24.2 µM | COc1ccc(Cl)cc1NC(=O)COC(=O)c1cc2ccccc2oc1=O
> 40 µM (inactive) | CCOc1ccc(-n2c(=O)c3sccc3n(CC(=O)Nc3cccc(C)c3)c2=O)cc1
> 40 µM (inactive) | Cc1cccc(NC(=O)Nc2ccccc2OCc2cc(=O)n3cccc(C)c3n2)c1
> 40 µM (inactive) | COc1ccc(NC(=O)Cn2cc(C(=O)c3ccccc3)c(=O)c3cc(Cl)ccc32)cc1OC
> 40 µM (inactive) | COc1cc(NS(=O)(=O)c2ccc(NC(=O)COc3ccc(C)cc3Br)cc2)nc(OC)n1
> 40 µM (inactive) | COc1ccc(-n2ccn3c(CCC(=O)Nc4cccc(C)c4)nnc3c2=O)cc1
